In paper PMC11884657, “Ru(II)-Fenamic-Based Complexes as Promising Human Ovarian Antitumor Agents: DNA Interaction, Cellular Uptake, and Three-Dimensional Spheroid Models” (Inorganic Chemistry, 2025):
Where two headings read alike, the source gives them in different places.

What was measured:
[1] = test system: MDA-MB-231 (breast) cancer cells; experiment: MTT cytotoxicity assay, MDA-MB-231; details: read-out: In Vitro Cytotoxicity IC50, MDA-MB-231
Protocol: (§1) The cell lines were grown in culture bottles and incubated at a CO2 concentration of 5% and 37 °C.
(§2) Cell viability was investigated via the MTT [3-(4,5-dimethylthiazol-2-yl)-2,5-diphenyltetrazolium bromide] assay. This method consists of the capacity of enzymes present in living cells, especially in mitochondria, to reduce MTT to formazan, a purple-colored compound. […] For the assays, 1.5 × 10^4 cells/well were seeded in 96-well flat-bottom cell culture plates (KASVI). The plates were incubated for 24 h; then, different concentrations of the complexes were pipetted, and the plates were treated for an additional 48 h. To complete the treatment, 50 μL of MTT (1 mg/mL in PBS) was added to each well, followed by incubation for 3 h. The formazan crystals that formed were solubilized in isopropanol, and the absorbance was read with a microplate reader (BioTek, Epoch) at 540 nm. Cell viability (IC50) was assessed with GraphPad Prism 8.

[2] = test system: A2780cis (ovarian cisplatin-resistant) cancer cells; experiment: MTT cytotoxicity assay, A2780cis; details: read-out: In Vitro Cytotoxicity IC50, A2780cis
Protocol: as §1, §2

[3] = test system: A2780 (ovarian) cancer cells; experiment: MTT cytotoxicity assay, A2780; details: read-out: In Vitro Cytotoxicity IC50, A2780
Protocol: as §1, §2

[4] = MTT cytotoxicity assay, MRC-5; details: human
Protocol: as §1, §2

[5] = test system: A549 (lung) cancer cells; experiment: MTT cytotoxicity assay, A549; details: read-out: In Vitro Cytotoxicity IC50, A549
Protocol: as §1, §2

[6] = in vitro; details: human
Protocol: as §1, §2

[7] = test system: MRC-5 (lung) normal cells; experiment: MTT cytotoxicity assay, MRC-5; details: read-out: In Vitro Cytotoxicity IC50, MRC-5; MTT, 48 h treatment
Protocol: as §1, §2

[8] = Stability by 31P{1H} NMR; details: 48 h
Protocol: Furthermore, the stability of the complexes was studied via ^31P{^1H} NMR in DMSO and a DMSO/DMEM (Dulbecco’s modified Eagle’s medium) solution over 48 h. […] In the same way, stability assays were performed for the precursor cis-[RuCl2(bipy)(dppp)].

[9] = test system: A2780 cancer cells; experiment: Clonogenic survival assay; assay type: cell-based, human; details: 0.5 × IC50, 48 h treatment then 7 days
Protocol: The A2780 cancer cells were used for the clonogenic assay, in which a total of 400 cells/well were seeded in a six-well plate in RPMI medium, and after incubation for 24 h, different concentrations of complexes 1 and 2 were added. The plates containing the complexes were incubated (37 °C and 5% of CO2) for 48 h. The culture medium was replaced with fresh medium, and the system was incubated again for 7 days under the same condition. Thereafter, all culture media were removed from the plate, and the cells were washed with PBS and fixed with a 3:1 methanol/acetic acid mixture. Then the cells were colored with a 0.5% crystal violet solution in water for 30 min. Images were taken, and the colonies counted using ImageJ. The experiment was also carried out in triplicate.

[10] = test system: A2780 cells; experiment: Cellular uptake of ruthenium by HR-CS GFAAS; assay type: cell-based, human; details: 1 μM complex, 4 h
Protocol: Due to the higher cytotoxicity of complexes 1 and 2 against the A2780 cell line, experiments were performed to evaluate their cell internalization capacity. These studies are crucial to determine whether the complexes can efficiently penetrate the cell membrane and to correlate their antiproliferative effects with their uptake levels.[59] A2780 cells were exposed to complexes 1 and 2 (1 μM) over a period of 4 h, and the cellular uptake of ruthenium was quantified using graphite furnace atomic absorption spectrometry.
A2780 cancer cells (2 × 10^6 cells/plate) were seeded in Petri dishes. After 24 h, complexes 1 and 2 (1 μM) were added to the cells for 4 h. Subsequently, the RPMI medium was removed, and the cells were washed with phosphate-buffered saline (PBS), trypsinized, and counted. The ruthenium absorbance measurements were conducted with an Analytik Jena ContrAA 700 graphite furnace atomic absorption spectrometer (Jena, Germany), equipped with solid sampling tubes. The absorbance measurements were performed at 349.8945 nm, with the peak volume selected absorbance (PVSA) corresponding to three pixels. The heating program for the graphite furnace, used for the quantitative determination of ruthenium, is depicted in Table S4.[66] The analytical working solution of 50 mg L^–1 Ru was prepared by diluting standard solutions of 1000 mg L^–1 Ru (Specsol, São Paulo, Brazil) and acidifying with 0.5% (v/v) HNO3. To establish the calibration curve, appropriate aliquots of the analytical working solution were added to the atomizer to achieve concentrations of 0.1, 0.3, 0.6, 0.9, 1.2, and 1.5 ng of ruthenium. The cell suspension containing the internalized complexes was diluted with 500 μL of deionized water, acidified with 0.5% (v/v) HNO3, and homogenized using a vortex mixer (IKA model V1). For the determination of Ru by SS HR-CS GFAAS, 10 μL aliquots of the samples were transferred to the platform and introduced automatically into the graphite furnace, in which all measurements were carried out in triplicate.

[11] = test system: A2780 ovarian cancer cells; experiment: Morphological assay (bright field, PI, DAPI/Green Plasma); assay type: cell-based, human; details: for DAPI and Green Plasma staining / propidium iodide fluorescence intensity: 48 h, 0.5 × IC50, IC50, 2 × IC50; for cell morphology: up to 48 h, mainly at higher concentrations
Protocol: For morphological analysis, A2780 cancer cells (0.3 × 10^5 cells/well) were added to a 12-well plate in RPMI medium. After 24 h, different concentrations of complexes 1 and 2 were introduced into the cells. Possible morphological changes were evaluated at 0 and 48 h using an inverted optical microscope (NIKON ECLIPSE TS100) coupled with a Motcam 1SP camera, with a 10× objective lens.
Additionally, 1.5 × 10^4 A2780 cells/well were plated in 96-well plates in RPMI medium for the fluorescence morphology experiments. After treatment for 48 h, 100 μL (1 μg mL^–1) of the fluorescent marker PI ([…]) was added. For the morphological assessment using the fluorescent markers DAPI (4′,6-diamidino-2-phenylindole dilactate) and Green Plasma (CellMask), the cells were fixed in methanol and 80 μL (1 μg mL^–1) portions of the markers were added. Images were taken using a CELENA microscope (Logos Biosystems).

[12] = test system: A2780 tumor spheroids; experiment: 3D tumor spheroids; assay type: cell-based, human
Protocol: In this experiment, the spheroids were monitored for 144 h after treatment with 1 at several concentrations (0.78–12.5 μM). […] As observed, at this concentration there is a decrease in the diameter, followed by stabilization, after treatment for 48 h. […] These findings underscore the necessity to refine in vitro methodologies to better elucidate the potential of novel compounds. Such improvements are crucial for increasing the likelihood of identifying critical insights early in the drug discovery and development process, thereby minimizing errors in subsequent stages. After treatment for 144 h, double staining with both DAPI and PI was performed.
In a 96-well Bioprint Kit [Magnetic 3D Cell Culture Technology (m3D)], the 3D culture experiment was carried out. Initially, to the A2780 cells was added 150 μL of a solution containing nanoparticles (NanoShuttle - PL). The A2780 cells were added to a 96-well repellent culture plate after 24 h. The resulting 1500 cells/well were placed under magnetic drives to form spheroids through the magnetic forces of the magnets. […] The formation of spheroids and their growth were monitored by a Digital Imaging System microscope (CELENA S, Logos Biosystems). Once the spheroids were formed, complex 1 at different concentrations (0.78, 1.56, 3.12, 6.25, and 12.5 μM) was added, and the effect of the compound on the spheroids was monitored for 144 h. […]

| Compound | IC50 ([1]; Homo sapiens, MDA-MB-231, 48 h) [µM] | IC50 ([2]; Homo sapiens, A2780cis, 48 h) [µM] | IC50 ([3]; Homo sapiens, A2780, 48 h) [µM] | IC50 ([5]; Homo sapiens, A549, 48 h) [µM] | IC50 ([1]; MTT, 48 h treatment) [µM] | IC50 ([2]; MTT, 48 h treatment) [µM] | IC50 ([3]; MTT, 48 h treatment) [µM] | IC50 [7] [µM] | IC50 ([5]; MTT, 48 h treatment) [µM] | further results |
| --- | --- | --- | --- | --- | --- | --- | --- | --- | --- | --- |
| c1ccc(-c2ccccn2)nc1 [Bipy, 2,2′-bipyridine] | > 100 | > 100 | > 100 | > 100 | – | – | – | – | – | IC50 at 48 h ([4]; MRC-5 normal lung cells): > 100 µM |
| c1ccc(P(CCCP(c2ccccc2)c2ccccc2)c2ccccc2)cc1 [Dppp, 1,3-bis(diphenylphosphino)propane] | > 100 | > 100 | > 100 | > 100 | – | – | – | – | – | IC50 at 48 h [6]: > 100 µM |
| O=C(O)c1ccccc1Nc1ccccc1 [HFe, fenamic acid] | > 100 | > 100 | > 100 | > 100 | – | – | – | – | – | IC50 at 48 h [4]: > 100 µM |
| O=C(O)c1ccccc1Nc1cccc(C(F)(F)F)c1 [HMFFe, flufenamic acid] | > 100 | > 100 | > 100 | > 100 | – | – | – | – | – | IC50 at 48 h [6]: > 100 µM |
| Cc1cccc(Nc2ccccc2C(=O)O)c1C [HMFe, mefenamic acid] | > 100 | > 100 | > 100 | > 100 | – | – | – | – | – | IC50 at 48 h [4]: > 100 µM |
| Cc1c(Cl)cccc1Nc1ccccc1C(=O)O [HMTFe, tolfenamic acid] | > 100 | > 100 | > 100 | > 100 | – | – | – | – | – | IC50 at 48 h [4]: > 100 µM |
| [Cl][Ru-4]12([Cl])([n+]3ccccc3-c3cccc[n+]31)[P+](c1ccccc1)(c1ccccc1)CCC[P+]2(c1ccccc1)c1ccccc1 [[RuCl2(bipy)(dppp)], cis-[RuCl2(bipy)(dppp)]] | – | – | – | – | 26.1 ± 4.84 | 35.6 ± 1.7 | 28 ± 0.81 | 40.9 ± 1.76 | > 50 | stability in DMSO [8]: new signals are observed at ∼40 ppm; stability in DMSO/DMEM solution [8]: two other doublets with chemical shifts at ∼33 and ∼46 ppm |
| F[P-](F)(F)(F)(F)F.c1ccc(Nc2ccccc2C2=[O+][Ru-4]34([O]2)([n+]2ccccc2-c2cccc[n+]23)[P+](c2ccccc2)(c2ccccc2)CCC[P+]4(c2ccccc2)c2ccccc2)cc1 [complex 1, [Ru(Fen)(bipy)(dppp)]PF6] | – | – | – | – | 2.87 ± 0.11 | 0.96 ± 0.04 | 0.66 ± 0.04 | 2.47 ± 0.18 | 3.96 ± 0.4 | effect on colony formation [9]: significantly reduced both the number and size of colonies; Ru uptake percentage [10]: 3,6%; amount of ruthenium internalized by A2780 cells [10]: 20,8 ± 3,2 ng; DAPI and Green Plasma staining [11]: significant shortening of the plasma membrane, while the nucleus remained intact; propidium iodide fluorescence intensity [11]: significant increase in fluorescence intensity; cell morphology [11]: loss of adhesion and round cells are observed; concentration at which spheroid growth (diameter) was significantly compromised ([12]; 0.78–12.5 μM tested, monitored 144 h): 12.5 µM; PI fluorescence in spheroids ([12]; DAPI/PI double staining after 144 h): increase in the fluorescence intensity of the PI marker |
| Cc1cccc(Nc2ccccc2C2=[O+][Ru-4]34([O]2)([n+]2ccccc2-c2cccc[n+]23)[P+](c2ccccc2)(c2ccccc2)CCC[P+]4(c2ccccc2)c2ccccc2)c1C.F[P-](F)(F)(F)(F)F [complex 2, [Ru(MFen)(bipy)(dppp)]PF6] | – | – | – | – | 3.99 ± 0.21 | 1.11 ± 0.06 | 0.91 ± 0.06 | 2.33 ± 0.04 | 4.57 ± 0.08 | effect on colony formation [9]: significantly reduced both the number and size of colonies; Ru uptake percentage [10]: 4,5%; amount of ruthenium internalized by A2780 cells [10]: 26,0 ± 1,9 ng; DAPI and Green Plasma staining [11]: significant shortening of the plasma membrane, while the nucleus remained intact; propidium iodide fluorescence intensity [11]: significant increase in fluorescence intensity; cell morphology [11]: loss of adhesion and round cells are observed |
| Cc1c(Cl)cccc1Nc1ccccc1C1=[O+][Ru-4]23([O]1)([n+]1ccccc1-c1cccc[n+]12)[P+](c1ccccc1)(c1ccccc1)CCC[P+]3(c1ccccc1)c1ccccc1.F[P-](F)(F)(F)(F)F [complex 3, [Ru(TFen)(bipy)(dppp)]PF6] | – | – | – | – | 3.71 ± 0.15 | 2.68 ± 0.26 | 2.25 ± 0.08 | 3.58 ± 0.02 | 8.74 ± 0.23 | – |
| FC(F)(F)c1cccc(Nc2ccccc2C2=[O+][Ru-4]34([O]2)([n+]2ccccc2-c2cccc[n+]23)[P+](c2ccccc2)(c2ccccc2)CCC[P+]4(c2ccccc2)c2ccccc2)c1.F[P-](F)(F)(F)(F)F [complex 4, [Ru(FFen)(bipy)(dppp)]PF6] | – | – | – | – | 2.34 ± 0.14 | 4.25 ± 0.11 | 2.14 ± 0.11 | 4.36 ± 0.19 | 6.87 ± 0.35 | – |
